Source: patent US6838414B2, “Substituted aryl sulphonyl(thio)ureas used as herbicides” (Bayer Aktiengesellschaft, priority 1996, dated 2005)
Each block holds one molecule with its values, some of them ahead of it.

Assays:
weeds [1] = assay: Pre-emergence test (overall statement); assay type: in vivo; details: application rates between 30 g and 125 g of a.i. per hectare
Description: (§1) To produce a suitable preparation of active compound, 1 part by weight of active compound is mixed with the stated amount of solvent, the stated amount of emulsifier is added and the concentrate is diluted with water to the desired concentration.
(§2) Seeds of the test plants are sown in normal soil. After about 24 hours, the soil is sprayed with the preparation of the active compound. Advantageously, the amount of water per unit area is kept constant. The active compound concentration in the preparation is not important, only the active compound application rate per unit area is critical.
(§3) After three weeks, the degree of damage to the plants is rated in % damage in comparison with the development of the untreated control.
(§4) The figures denote: • 0%=no effect (like untreated control) • 100%=total destruction

Chenopodium = assay: Pre-emergence test/greenhouse; assay type: in vivo; details: after three weeks
Description: as §1, §2, §3, §4

Alopecurus [2] = assay: Pre-emergence test/greenhouse; assay type: in vivo; details: after three weeks
Description: as §1, §2, §3, §4

Sorghum = assay: Pre-emergence test/greenhouse; assay type: in vivo; details: after three weeks
Description: as §1, §2, §3, §4

Lolium = assay: Pre-emergence test/greenhouse; assay type: in vivo; details: after three weeks
Description: as §1, §2, §3, §4

Amaranthus = assay: Pre-emergence test/greenhouse; assay type: in vivo; details: after three weeks
Description: as §1, §2, §3, §4

Stellaria = assay: Pre-emergence test/greenhouse; assay type: in vivo; details: after three weeks
Description: as §1, §2, §3, §4

Matricaria = assay: Post-emergence test/greenhouse; assay type: in vivo; details: rated after three weeks vs untreated control
Description: as §1
(§5) Test plants which have a height of 5-15 cm are sprayed with the preparation of the active compound in such a way as to apply the particular amounts of active compound desired per unit area. The concentration of the spray liquor is chosen so that the amounts of active compound desired in each case are applied in 1000 l of water/ha.
as §3, §4

Alopecurus [3] = assay: Post-emergence test/greenhouse; assay type: in vivo; details: rated after three weeks vs untreated control
Description: as §1, §5, §3, §4

Abutilon = assay: Post-emergence test/greenhouse; assay type: in vivo; details: rated after three weeks vs untreated control
Description: as §1, §5, §3, §4

Echinochloa = assay: Post-emergence test/greenhouse; assay type: in vivo; details: rated after three weeks vs untreated control
Description: as §1, §5, §3, §4

weeds [4] = assay: Post-emergence test/greenhouse; assay type: in vivo
Description: as §1, §5, §3, §4

[5] = application rate 30 g of ai./ha
[6] = application rate 60 g of ai./ha

melting point: 190 °C
Compound: COc1cccc(C(F)(F)F)c1S(=O)(=O)NC(=O)Nc1nc(C)cc(C)n1 [Example 1, N-(4,6-dimethyl-pyrimidin-2-yl)-N′-(2-methoxy-6-trifluoromethyl-phenylsulphonyl)-urea]
activity against weeds (weeds [1]): very strong activity against weeds
Chenopodium, % damage (Chenopodium; 60 g of ai./ha): 100%
Alopecurus, % damage (Alopecurus [2]; 60 g of ai./ha): 100%
Sorghum, % damage (Sorghum; 60 g of ai./ha): 100%
Lolium, % damage (Lolium; 60 g of ai./ha): 100%
Amaranthus, % damage (Amaranthus; 60 g of ai./ha): 100%
Steltaria, % damage (Stellaria; 60 g of ai./ha): 100%

melting point: 163 °C
Compound: COc1nc(NC(=O)NS(=O)(=O)c2c(C)cccc2OC)nc(OC)n1 [Example 2, N-(4,6-dimethoxy-1,3,5-triazin-2-yl)-N′-(2-methoxy-6-methyl-phenylsulphonyl)-urea]
degree of damage to the plants, Matricaria (Matricaria; [5]): 100%
degree of damage to the plants, Alopecurus (Alopecurus [3]; [5]): 90%
degree of damage to the plants, Abutilon (Abutilon; [5]): 95%
degree of damage to the plants, Echinochloa (Echinochloa; [5]): 90%
activity against weeds (weeds [4]): very strong activity against weeds
activity against weeds (weeds [1]): very strong activity against weeds
Chenopodium, % damage (Chenopodium; 30 g of ai./ha): 100%
Alopecurus, % damage (Alopecurus [2]; 30 g of ai./ha): 100%
Sorghum, % damage (Sorghum; 30 g of ai./ha): 100%
Lolium, % damage (Lolium; 30 g of ai./ha): 100%
Amaranthus, % damage (Amaranthus; 30 g of ai./ha): 100%
Steltaria, % damage (Stellaria; 30 g of ai./ha): 100%

melting point: 184 °C
Compound: CCOc1cccc(C)c1S(=O)(=O)NC(=O)Nc1nc(OC)cc(OC)n1 [Example 3, N-(4,6-dimethoxy-pyrimidin-2-yl)-N′-(2-ethoxy-6-methyl-phenylsulphonyl)-urea]
degree of damage to the plants, Matricaria (Matricaria; [6]): 95%
degree of damage to the plants, Alopecurus (Alopecurus [3]; [6]): 90%
degree of damage to the plants, Abutilon (Abutilon; [6]): 100%
degree of damage to the plants, Echinochloa (Echinochloa; [6]): 80%
activity against weeds (weeds [4]): very strong activity against weeds
activity against weeds (weeds [1]): very strong activity against weeds
Chenopodium, % damage (Chenopodium; 60 g of ai./ha): 95%
Alopecurus, % damage (Alopecurus [2]; 60 g of ai./ha): 95%
Sorghum, % damage (Sorghum; 60 g of ai./ha): 80%
Lolium, % damage (Lolium; 60 g of ai./ha): 60%
Amaranthus, % damage (Amaranthus; 60 g of ai./ha): 80%
Steltaria, % damage (Stellaria; 60 g of ai./ha): 95%

Compound: COc1nc(C)nc(NC(=O)NS(=O)(=O)c2c(C)cccc2OC(F)F)n1 [Example 66]
degree of damage to the plants, Matricaria (Matricaria; [6]): 100%
degree of damage to the plants, Alopecurus (Alopecurus [3]; [6]): 80%
degree of damage to the plants, Abutilon (Abutilon; [6]): 100%
degree of damage to the plants, Echinochloa (Echinochloa; [6]): 80%
activity against weeds (weeds [4]): very strong activity against weeds
activity against weeds (weeds [1]): very strong activity against weeds
Chenopodium, % damage (Chenopodium; 60 g of ai./ha): 95%
Alopecurus, % damage (Alopecurus [2]; 60 g of ai./ha): 95%
Sorghum, % damage (Sorghum; 60 g of ai./ha): 95%
Lolium, % damage (Lolium; 60 g of ai./ha): 95%
Amaranthus, % damage (Amaranthus; 60 g of ai./ha): 95%
Steltaria, % damage (Stellaria; 60 g of ai./ha): 95%
